Patent US20260000676A1, “CHROMAN DERIVATIVES AS ESTROGEN RECEPTOR DEGRADERS” (THE REGENTS OF THE UNIVERSITY OF MICHIGAN, priority 2022, published 2026)

What was measured:
[1] = molecular target: CRBN/DDB1 (Homo sapiens (Human), UniProt Q96SW2); experiment: HTRF binding assay to CRBN/DDB1; details: read-out: CRBN HTRF IC50
Procedure: The binding potency was determined using HTRF assay technology (Perkin Elmer). Compounds were serially diluted in DMSO and 0.2 μL volume was transferred to white 384-well plate.

[2] = molecular target: ERα_LBD(GST) (Homo sapiens (Human), UniProt P03372); experiment: LanthaScreen TR-FRET ERα competitive binding assay; details: read-out: ERα HTRF IC50
Sequence of ERα_LBD(GST) (P03372 311-547): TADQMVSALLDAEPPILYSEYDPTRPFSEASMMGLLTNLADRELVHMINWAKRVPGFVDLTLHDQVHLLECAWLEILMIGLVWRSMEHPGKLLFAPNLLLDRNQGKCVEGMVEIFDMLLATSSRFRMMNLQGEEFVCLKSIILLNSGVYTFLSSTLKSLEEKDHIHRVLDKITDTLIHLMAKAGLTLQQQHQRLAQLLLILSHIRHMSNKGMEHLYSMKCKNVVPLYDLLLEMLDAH
Procedure: • 1. ERα_LBD(GST) protein: 4 nM • 2. Tb Anti-GST: 2 nM • 3. Fluormone ES2 Green tracer: 3 nM • 4. Incubation time: 60 min • 5. DMSO: 1% • 6. Assay buffer: Adding 1M DTT to Nuclear receptor Buffer K for final 5 mM DTT. • 7. ZPE: 1% DMSO • 8. HPE: 1 μM ARV_471 • 9. LanthaScreen® TR-FRET ERα Competitive Binding Assay (ThermoFisher, #A15887)
• 1) Cherry pick 2 μL 10 mM compound stock to column 1 of a 384 intermediate plate • 2) Add 18 μL DMSO to column 1 to dilute compound to 1 mM. • 3) Transfer 10 μL 1 mM compound to column 1 of a LDV plate. • 2) Add 6 μl DMSO to column 2-10 of the LDV plate. • 3) Compounds undergo 3-fold serial dilution (3 μL+6 μL) in DMSO. • 4) Transfer 120 nL compound solution to assay plate. • ZPE: 120 nL 100% DMSO
Prepare complete nuclear receptor buffer K by adding 1 M DTT to nuclear receptor buffer K for a final concentration of 5 mM DTT. Complete nuclear receptor buffer K must be prepared fresh daily. Prepare 2× protein solution using complete nuclear receptor buffer K containing 8 nM ERα_LBD(GST) and 4 nM Tb Anti-GST. Then, prepare 2× Fluormone ES2 Green tracer (6 nM) using complete nuclear receptor buffer K. Add 6 μL 2× Fluormone ES2 green tracer into a compound plate (PerkinElmer 6008289) by dragonfly with one-tips-addition. Subsequently, add 6 μL 2× protein solution into the plate. Briefly and gently mix the 384-well plate on a plate shaker and incubate at room temperature protected from light for 60 min. The plate is sealed with a cover to minimize evaporation. Read the plate at wavelengths of 520 nm and 495 nm. Calculate the TR-FRET ratio by dividing the emission signal at 520 nm by the emission signal at 495 nm. Generate a binding curve by plotting the emission ratio vs. the log [ligand]. To determine the IC50 value, fit the data using XL-fit for a sigmoidal dose-response.

[3] = molecular target: T1, ER (Homo sapiens (Human), UniProt P03372); experiment: In-cell western (ICW) ER degradation assay in T47D cells; assay type: cell-based; details: 16 hrs; for DC50: ER degradation; for Dmax / T47D Dmax %: maximal ER degradation
T1 sequence (P03372 whole entry): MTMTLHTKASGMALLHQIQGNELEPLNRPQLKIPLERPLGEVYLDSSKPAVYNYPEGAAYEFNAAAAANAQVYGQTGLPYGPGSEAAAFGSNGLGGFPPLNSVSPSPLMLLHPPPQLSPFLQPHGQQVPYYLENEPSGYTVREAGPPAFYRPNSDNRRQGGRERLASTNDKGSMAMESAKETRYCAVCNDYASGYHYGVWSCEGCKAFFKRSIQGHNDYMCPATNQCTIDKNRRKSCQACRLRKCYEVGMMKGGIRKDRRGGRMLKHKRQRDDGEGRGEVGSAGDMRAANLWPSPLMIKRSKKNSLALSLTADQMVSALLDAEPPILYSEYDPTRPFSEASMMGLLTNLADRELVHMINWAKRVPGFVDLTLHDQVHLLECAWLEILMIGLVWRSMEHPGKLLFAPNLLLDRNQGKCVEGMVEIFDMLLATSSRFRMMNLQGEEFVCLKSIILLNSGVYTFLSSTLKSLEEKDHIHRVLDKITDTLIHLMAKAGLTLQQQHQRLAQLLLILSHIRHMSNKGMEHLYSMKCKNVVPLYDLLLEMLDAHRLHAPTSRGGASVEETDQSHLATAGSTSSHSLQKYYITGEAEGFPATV

[4] = molecular target: T1, ER; experiment: In-cell western (ICW) ER degradation assay in MCF-7 cells; assay type: cell-based; details: MCF7, 16 hrs; for DC50: ER degradation; for Dmax: MCF7, maximal ER degradation; for MCF7 Dmax %: maximal ER degradation

Sequence of CRBN/DDB1 (Q96SW2 whole entry): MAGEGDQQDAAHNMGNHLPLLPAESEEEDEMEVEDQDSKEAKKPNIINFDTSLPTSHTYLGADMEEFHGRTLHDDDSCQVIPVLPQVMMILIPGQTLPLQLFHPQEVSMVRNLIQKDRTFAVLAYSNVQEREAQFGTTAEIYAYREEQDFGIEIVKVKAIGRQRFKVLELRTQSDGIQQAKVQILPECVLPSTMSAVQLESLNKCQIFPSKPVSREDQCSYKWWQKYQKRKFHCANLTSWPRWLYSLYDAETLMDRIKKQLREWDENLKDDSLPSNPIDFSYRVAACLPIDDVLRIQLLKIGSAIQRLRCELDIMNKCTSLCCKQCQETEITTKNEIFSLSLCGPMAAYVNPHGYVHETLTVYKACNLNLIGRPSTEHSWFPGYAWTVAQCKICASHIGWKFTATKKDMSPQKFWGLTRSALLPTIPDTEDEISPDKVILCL
Sequence of CRBN/DDB1 (Q16531 whole entry partner): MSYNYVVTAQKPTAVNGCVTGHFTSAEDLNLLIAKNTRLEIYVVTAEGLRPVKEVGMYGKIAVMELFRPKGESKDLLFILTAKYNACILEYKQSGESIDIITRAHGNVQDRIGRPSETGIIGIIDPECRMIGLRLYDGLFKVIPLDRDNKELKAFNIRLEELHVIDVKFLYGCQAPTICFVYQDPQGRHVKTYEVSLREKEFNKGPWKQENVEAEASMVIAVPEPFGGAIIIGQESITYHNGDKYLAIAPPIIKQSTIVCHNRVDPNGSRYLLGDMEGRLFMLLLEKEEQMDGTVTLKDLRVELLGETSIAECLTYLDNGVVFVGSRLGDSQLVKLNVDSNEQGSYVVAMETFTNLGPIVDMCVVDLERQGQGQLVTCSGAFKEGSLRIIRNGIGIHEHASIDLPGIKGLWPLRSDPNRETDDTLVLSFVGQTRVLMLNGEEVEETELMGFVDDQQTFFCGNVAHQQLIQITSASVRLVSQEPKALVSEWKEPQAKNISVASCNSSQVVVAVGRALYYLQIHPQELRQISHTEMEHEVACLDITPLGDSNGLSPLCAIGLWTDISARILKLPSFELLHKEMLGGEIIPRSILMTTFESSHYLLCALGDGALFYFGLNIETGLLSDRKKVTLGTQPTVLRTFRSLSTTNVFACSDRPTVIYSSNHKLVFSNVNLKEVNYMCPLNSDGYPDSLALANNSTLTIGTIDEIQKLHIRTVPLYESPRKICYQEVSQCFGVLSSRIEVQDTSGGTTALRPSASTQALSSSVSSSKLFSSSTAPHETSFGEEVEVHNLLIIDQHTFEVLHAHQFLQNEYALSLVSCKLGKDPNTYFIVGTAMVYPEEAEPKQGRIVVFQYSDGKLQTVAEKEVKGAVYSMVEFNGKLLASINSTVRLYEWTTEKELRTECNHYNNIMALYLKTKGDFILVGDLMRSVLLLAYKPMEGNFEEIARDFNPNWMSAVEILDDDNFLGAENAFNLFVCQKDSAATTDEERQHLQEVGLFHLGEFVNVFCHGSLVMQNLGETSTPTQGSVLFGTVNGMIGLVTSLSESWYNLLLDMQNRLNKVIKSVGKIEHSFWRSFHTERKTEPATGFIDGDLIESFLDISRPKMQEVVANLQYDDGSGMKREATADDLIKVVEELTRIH

O=C1CCC(N2C(=O)c3cc4c(cc3C2=O)CN(CC(=O)N2CC3(CCN(c5ccc([C@@H]6c7ccc(O)cc7OC[C@@H]6c6ccccc6)cc5)CC3)C2)C4)C(=O)N1 (single isomer, unassigned) [Compound A26]
IC50 [1]: 50 to 500 nM | IC50 [2]: < 5 nM

O=C1CCC(N2Cc3c(ccc4c3OC[C@H]3CN(CC5CCN(c6ncc([C@H]7c8ccc(O)cc8OC[C@H]7c7ccccc7)cn6)CC5)CCN43)C2=O)C(=O)N1 (single isomer, unassigned) [Compound A35]
IC50 [1]: 50 to 500 nM | DC50 [3]: 1 to 10 nM | Dmax [3]: 50 to 75% | DC50 [4]: 1 to 10 nM | Dmax [4]: 25 to 50% | IC50 [2]: < 5 nM

O=C1CC[C@@H](N2Cc3cc4c(cc3C2=O)CN(C(=O)CN2CCC3(CC2)CCN(c2ccc([C@H]5c6ccc(O)cc6OC[C@H]5c5ccccc5)cc2)CC3)C4)C(=O)N1 (single isomer, unassigned) [Compound A41]
IC50 [1]: 50 to 500 nM | DC50 [3]: < 1 nM | Dmax [3]: ≥ 75% | DC50 [4]: 1 to 10 nM | Dmax [4]: 50 to 75% | IC50 [2]: ≥ 5 nM

O=C1CCC(N2C(=O)c3cc4c(cc3C2=O)CN(CC(=O)N2CCC3(CC2)CN(c2ccc([C@@H]5c6ccc(O)cc6OC[C@@H]5c5ccccc5)cc2)C3)C4)C(=O)N1 (single isomer, unassigned) [Compound A44]
IC50 [1]: 50 to 500 nM | DC50 [3]: < 1 nM | Dmax [3]: 50 to 75% | DC50 [4]: 1 to 10 nM | Dmax [4]: 50 to 75% | IC50 [2]: < 5 nM

O=C1CCC(N2Cc3c(ccc4c3OC[C@H]3CN(CC5CCN(c6ccc([C@H]7c8ccc(O)cc8OC[C@H]7c7ccccc7)cn6)CC5)CCN43)C2=O)C(=O)N1 (single isomer, unassigned) [Compound A64]
IC50 [1]: 50 to 500 nM | DC50 [3]: 1 to 10 nM | Dmax [3]: 50 to 75% | DC50 [4]: 1 to 10 nM | Dmax [4]: 25 to 50% | IC50 [2]: < 5 nM

COc1cc(N2CCC(CN3CCN4c5ccc6c(c5OC[C@H]4C3)CN(C3CCC(=O)NC3=O)C6=O)CC2)ccc1[C@@H]1c2ccc(O)cc2OC[C@@H]1c1ccccc1 (single isomer, unassigned) [Compound A77]
IC50 [1]: 500 to 5000 nM | DC50 [3]: < 1 nM | Dmax [3]: 50 to 75% | DC50 [4]: < 1 nM | Dmax [4]: 50 to 75% | IC50 [2]: < 5 nM

O=C1CCC(N2Cc3cc4c(cc3C2=O)CN(C(=O)C2CCN(C3CCN(c5ccc([C@@H]6c7ccc(O)cc7OC[C@@H]6c6ccccc6)cc5)CC3)CC2)C4)C(=O)N1 (single isomer, unassigned) [Compound A81]
IC50 [1]: 500 to 5000 nM | DC50 [3]: < 1 nM | Dmax [3]: ≥ 75% | DC50 [4]: < 1 nM | Dmax [4]: ≥ 75% | IC50 [2]: < 5 nM

O=C1CC[C@@H](Nc2ccc(C3CCN(CC4CCC5(CC4)CN(c4ccc([C@H]6c7ccc(O)cc7OC[C@H]6c6ccccc6)cc4)C5)CC3)cc2)C(=O)N1 (single isomer, unassigned) [Compound A140]
IC50 [1]: 500 to 5000 nM | DC50 [3]: < 1 nM | Dmax [3]: 50 to 75% | DC50 [4]: < 1 nM | Dmax [4]: 50 to 75% | IC50 [2]: < 5 nM

O=C1CC[C@@H](NC(=O)c2ccc(N3CCN(CC4COC5(CCN(c6ccc([C@H]7c8ccc(O)cc8OC[C@H]7c7ccccc7)cc6)CC5)C4)CC3)cn2)C(=O)N1 (single isomer, unassigned) [Compound A145]
IC50 [1]: > 5000 nM | DC50 [3]: < 1 nM | Dmax [3]: 50 to 75% | DC50 [4]: 1 to 10 nM | Dmax [4]: 50 to 75% | IC50 [2]: < 5 nM

O=C1CCC(N2Cc3cc4c(cc3C2=O)CN(C(=O)CN2CCC3(CC2)CN(c2ccc([C@@H]5c6ccc(O)cc6OC[C@@H]5c5ccccc5)cc2)C3)C4)C(=O)N1 (stereo partly drawn) [Compound A49, 3-(6-(2-(2-(4-((3S,4R)-7-hydroxy-3-phenylchroman-4-yl)phenyl)-2,7-diazaspiro[3.5]nonan-7-yl)acetyl)-1-oxo-3,5,6,7-tetrahydropyrrolo[3,4-f]isoindol-2(1H)-yl)piperidine-2,6-dione]
IC50 [1]: 50 to 500 nM | DC50 [3]: 1 to 10 nM | Dmax [3]: 50 to 75% | DC50 [4]: 1 to 10 nM | Dmax [4]: 50 to 75% | IC50 [2]: < 5 nM

COc1cc(N2CCC(CN3CCN(c4ccc(C(=O)NC5CCC(=O)NC5=O)nc4)CC3)CC2)c(F)cc1[C@H]1c2ccc(O)cc2OC[C@H]1c1ccccc1 (stereo partly drawn) [Compound A110, N-(2,6-dioxopiperidin-3-yl)-5-(4-((1-(2-fluoro-4-((3R,4R)-7-hydroxy-3-phenylchroman-4-yl)-5-methoxyphenyl)piperidin-4-yl)methyl)piperazin-1-yl)picolinamide]
IC50 [1]: > 5000 nM | DC50 [3]: < 1 nM | T47D Dmax % [3]: B (“B”: >50% and <75%) | DC50 [4]: < 1 nM | MCF7 Dmax % [4]: B (“B”: >50% and <75%) | IC50 [2]: < 5 nM

COc1cc(N2CCC3(CC2)CC(CN2CCC4(CC2)COc2c4ccc4c2CN(C2CCC(=O)NC2=O)C4=O)C3)c(F)cc1[C@H]1c2ccc(O)cc2OC[C@H]1c1ccccc1 (stereo partly drawn) [Compound A130, 3-(1′-((7-(2-fluoro-4-((3R,4R)-7-hydroxy-3-phenylchroman-4-yl)-5-methoxyphenyl)-7-azaspiro[3.5]nonan-2-yl)methyl)-6-oxo-6,8-dihydro-2H,7H-spiro[furo[2,3-e]isoindole-3,4′-piperidin]-7-yl)piperidine-2,6-dione]
IC50 [1]: 50 to 500 nM | DC50 [3]: < 1 nM | T47D Dmax % [3]: A (“A”; >=75%) | DC50 [4]: < 1 nM | MCF7 Dmax % [4]: A (“A”; >=75%) | IC50 [2]: < 5 nM

O=C1CC[C@H](NC(=O)c2ccc3c(n2)OC[C@H]2CN(CC4CCC5(CC4)CN(c4ccc([C@@H]6c7ccc(O)cc7OC[C@@H]6c6ccccc6)cc4)C5)CCN32)C(=O)N1 [Compound A142, (R)-N-((S)-2,6-dioxopiperidin-3-yl)-3-((2-(4-((3S,4R)-7-hydroxy-3-phenylchroman-4-yl)phenyl)-2-azaspiro[3.5]nonan-7-yl)methyl)-1,2,3,4,4a,5-hexahydropyrazino[1,2-d]pyrido[2,3-b][1,4]oxazine-8-carboxamide]
IC50 [1]: 500 to 5000 nM | DC50 [3]: < 1 nM | Dmax [3]: 50 to 75% | DC50 [4]: 1 to 10 nM | Dmax [4]: 50 to 75% | IC50 [2]: < 5 nM

O=C1CCC(N2Cc3c(ccc4c3OCC43CCN(CC4COC5(CCN(c6ccc([C@H]7c8ccc(O)cc8OC[C@H]7c7ccccc7)cc6)CC5)C4)CC3)C2=O)C(=O)N1 (stereo partly drawn) [Compound A146, 3-(1′-((8-(4-((3R,4S)-7-hydroxy-3-phenylchroman-4-yl)phenyl)-1-oxa-8-azaspiro[4.5]decan-3-yl)methyl)-6-oxo-6,8-dihydro-2H,7H-spiro[furo[2,3-e]isoindole-3,4′-piperidin]-7-yl)piperidine-2,6-dione]
IC50 [1]: < 50 nM | DC50 [3]: 1 to 10 nM | Dmax [3]: 25 to 50% | DC50 [4]: 1 to 10 nM | Dmax [4]: 50 to 75% | IC50 [2]: ≥ 5 nM

O=C1CC[C@H](NC(=O)c2ccc3c(n2)OC[C@H]2CN(C[C@H]4COC5(CCN(c6ccc([C@@H]7c8ccc(O)cc8OC[C@@H]7c7ccccc7)cc6)CC5)C4)CCN32)C(=O)N1 [Compound A147, (R)-N-((S)-2,6-dioxopiperidin-3-yl)-3-(((S)-8-(4-((3S,4R)-7-hydroxy-3-phenylchroman-4-yl)phenyl)-1-oxa-8-azaspiro[4.5]decan-3-yl)methyl)-1,2,3,4,4a,5-hexahydropyrazino[1,2-d]pyrido[2,3-b][1,4]oxazine-8-carboxamide]
IC50 [1]: 500 to 5000 nM | DC50 [3]: < 1 nM | Dmax [3]: 50 to 75% | DC50 [4]: < 1 nM | Dmax [4]: 50 to 75% | IC50 [2]: < 5 nM

O=C1CC[C@@H](N2Cc3cc4c(cc3C2=O)OCC42CCN(CC3CCC4(CC3)CN(c3ccc([C@H]5c6ccc(O)cc6OC[C@H]5c5ccccc5)cc3)C4)CC2)C(=O)N1 [Compound A153, (R)-3-(1′-((2-(4-((3R,4S)-7-hydroxy-3-phenylchroman-4-yl)phenyl)-2-azaspiro[3.5]nonan-7-yl)methyl)-7-oxo-5,7-dihydro-2H,6H-spiro[furo[2,3-f]isoindole-3,4′-piperidin]-6-yl)piperidine-2,6-dione]
DC50 [3]: < 1 nM | Dmax [3]: ≥ 75% | DC50 [4]: < 1 nM | Dmax [4]: 50 to 75% | IC50 [2]: < 5 nM
